Reference: ChEMBL document CHEMBL1201862, “PubChem BioAssay data set” (2004)
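Step 1: Grow cells in 96-well plates. Step 2: Expose to compound for 48 hours at 5 concentrations. Step 3: Interpolate endpoints linearly; if unreached, use highest concentration. GI50 = concentration required for 50% inhibition of growth.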 Activity calls are given as the source filed them. Rule as the data show it: active = GI50 up to about 1.1 µM and inactive = higher.

What was measured:
Experiment in all cases: NCI anticancer screen, dose series, 48 h
TK-10 = system: TK-10
OVCAR-4 = system: OVCAR-4
Malme-3M = system: Malme-3M
MDA-MB-435 = system: MDA-MB-435
EKVX = system: EKVX
MCF7 = system: MCF7
NCI-H226 = system: NCI-H226
HCC 2998 = system: HCC 2998
UACC-62 = system: UACC-62
IGROV-1 = system: IGROV-1
HT-29 = system: HT-29
CCRF-CEM = system: CCRF-CEM
SF-268 = system: SF-268
HOP-62 = system: HOP-62
Hs-578T = system: Hs-578T
SR = system: SR
RPMI-8226 = system: RPMI-8226
OVCAR-8 = system: OVCAR-8
MOLT-4 = system: MOLT-4
A498 = system: A498

Structure (SMILES)	GI50 (TK-10)	GI50 (OVCAR-4)	GI50 (Malme-3M)	GI50 (MDA-MB-435)	GI50 (EKVX)	GI50 (MCF7)	GI50 (NCI-H226)	GI50 (HCC 2998)	GI50 (UACC-62)	GI50 (IGROV-1)	GI50 (HT-29)	GI50 (CCRF-CEM)	GI50 (SF-268)	GI50 (HOP-62)	GI50 (Hs-578T)	GI50 (SR)	GI50 (RPMI-8226)	GI50 (OVCAR-8)	GI50 (MOLT-4)	GI50 (A498)
CCN(CC)CCCNc1c2cc(OC)ccc2nc2cccc([N+](=O)[O-])c12	0.195 µM (active)	0.0261 µM (active)	0.118 µM (active)	0.0995 µM (active)	0.163 µM (active)	0.0333 µM (active)	0.204 µM (active)	0.0655 µM (active)	0.166 µM (active)	0.102 µM (active)	0.0456 µM (active)	0.128 µM (active)	0.0841 µM (active)	0.156 µM (active)	0.138 µM (active)	0.00612 µM (active)	0.0535 µM (active)	0.0904 µM (active)	0.0274 µM (active)	0.0127 µM (active)
CCOC(=O)C1=NN(c2ccc(C)cc2)C2(c3ccccc3)C=C(c3ccccc3)N(C)CCN12 (stereo not given)	> 100 µM (inactive)	> 100 µM (inactive)	> 100 µM (inactive)	> 100 µM (inactive)	> 100 µM (inactive)	> 100 µM (inactive)	> 100 µM (inactive)	82.4 µM (inactive)	> 100 µM (inactive)	> 100 µM (inactive)	> 100 µM (inactive)	> 100 µM (inactive)	> 100 µM (inactive)	> 100 µM (inactive)	> 100 µM (inactive)	35.2 µM (inactive)	29 µM (inactive)	> 100 µM (inactive)	> 100 µM (inactive)	> 100 µM (inactive)
Clc1ccc(CCNC2(c3cc4ccccc4s3)CCCCC2)cc1Cl	20.8 µM (inactive)	33.3 µM (inactive)	19.5 µM (inactive)	41.4 µM (inactive)	26.1 µM (inactive)	17 µM (inactive)	17.3 µM (inactive)	7.74 µM (inactive)	17.7 µM (inactive)	40.8 µM (inactive)	10 µM (inactive)	12.9 µM (inactive)	53 µM (inactive)	28.2 µM (inactive)	42.5 µM (inactive)	11.9 µM (inactive)	11.5 µM (inactive)	31.9 µM (inactive)	13.8 µM (inactive)	19.1 µM (inactive)
CCOC(=O)c1nc2ccc(C(F)(F)F)cc2nc1Nc1ccc(OC)cc1	> 100 µM (inactive)	18.6 µM (inactive)	> 100 µM (inactive)	> 100 µM (inactive)	98.9 µM (inactive)	> 100 µM (inactive)	32.5 µM (inactive)	> 100 µM (inactive)	55.7 µM (inactive)	36.6 µM (inactive)	> 100 µM (inactive)	> 100 µM (inactive)	46.2 µM (inactive)	24.3 µM (inactive)	35.2 µM (inactive)	> 100 µM (inactive)	> 100 µM (inactive)	> 100 µM (inactive)	> 100 µM (inactive)	44.8 µM (inactive)
CCOP(=O)(OCC)C(=C1C=C(C(C)(C)C)C(=O)C(C(C)(C)C)=C1)P(=O)(OCC)OCC	3.27 µM (inactive)	1.87 µM (inactive)	1.82 µM (inactive)	> 5.24 µM (inactive)	> 7.76 µM (inactive)	> 6.84 µM (inactive)	> 10 µM (inactive)	> 10 µM (inactive)	> 10 µM (inactive)	> 10 µM (inactive)	> 10 µM (inactive)	1.14 µM (inactive)	> 10 µM (inactive)	> 10 µM (inactive)	> 10 µM (inactive)	3.64 µM (inactive)	5.08 µM (inactive)	> 10 µM (inactive)	2.89 µM (inactive)	> 10 µM (inactive)
CC/C(Cl)=N\OC(=O)Nc1ccc(F)c(Cl)c1	17.5 µM (inactive)	14.5 µM (inactive)	4.66 µM (inactive)	21.2 µM (inactive)	18.2 µM (inactive)	7.1 µM (inactive)	24.4 µM (inactive)	18.7 µM (inactive)	20.6 µM (inactive)	16.3 µM (inactive)	24 µM (inactive)	2.04 µM (inactive)	15.7 µM (inactive)	19 µM (inactive)	39.4 µM (inactive)	4.99 µM (inactive)	3.35 µM (inactive)	17.7 µM (inactive)	1.48 µM (inactive)	16.2 µM (inactive)
COc1ccc(/N=C/C=C/Nc2ccc(OC)cc2)cc1	11.8 µM (inactive)	5.24 µM (inactive)	11.4 µM (inactive)	9.27 µM (inactive)	15.7 µM (inactive)	4.75 µM (inactive)	17.5 µM (inactive)	8.45 µM (inactive)	13.7 µM (inactive)	11.6 µM (inactive)	2.88 µM (inactive)	6.28 µM (inactive)	7.43 µM (inactive)	5.78 µM (inactive)	17.5 µM (inactive)	3.85 µM (inactive)	8.81 µM (inactive)	3.3 µM (inactive)	4.51 µM (inactive)	14 µM (inactive)
O=C(NCCCCCCNC(=O)n1cc(F)c(=O)[nH]c1=O)NCCCOCCOCCOCCOCCOCCOCCOCCOCCOCCOCCOCCOCCOCCOCCOCCOCCOCCOCCOCCOCCOCCCNC(=O)C(O)C(O)C(O)C(O)CO (stereo not given)	15.6 µM (inactive)	> 100 µM (inactive)	20.2 µM (inactive)	55.1 µM (inactive)	85.9 µM (inactive)	4.72 µM (inactive)	> 100 µM (inactive)	5.66 µM (inactive)	28.8 µM (inactive)	60.1 µM (inactive)	17.5 µM (inactive)	43.9 µM (inactive)	55.5 µM (inactive)	33.5 µM (inactive)	61.8 µM (inactive)	65.9 µM (inactive)	5.85 µM (inactive)	39.2 µM (inactive)	33.9 µM (inactive)	6.95 µM (inactive)
Oc1cc(O)c2c(c1)OC(c1ccc(O)c(O)c1)C(OC1(c3cc(O)c(O)c(O)c3)Oc3cc(O)cc(O)c3C(O)C1O)C2 (stereo not given)	> 100 µM (inactive)	26.4 µM (inactive)	87.9 µM (inactive)	15.7 µM (inactive)	15.6 µM (inactive)	19.6 µM (inactive)	21.1 µM (inactive)	62.8 µM (inactive)	37.6 µM (inactive)	30.7 µM (inactive)	18.1 µM (inactive)	15.1 µM (inactive)	25.9 µM (inactive)	24 µM (inactive)	36.6 µM (inactive)	29.2 µM (inactive)	22.1 µM (inactive)	26 µM (inactive)	23.5 µM (inactive)	> 34.1 µM (inactive)
COC(=O)c1cc2c(cc1Cl)Sc1nnc(Nc3ccccc3)n1S2(=O)=O	2.69 µM (inactive)	3.37 µM (inactive)	3.03 µM (inactive)	7.48 µM (inactive)	7.1 µM (inactive)	2.86 µM (inactive)	2.45 µM (inactive)	1.91 µM (inactive)	3.99 µM (inactive)	0.351 µM (active)	2.4 µM (inactive)	2.3 µM (inactive)	2.26 µM (inactive)	2.15 µM (inactive)	3.1 µM (inactive)	2.74 µM (inactive)	1.62 µM (inactive)	3.58 µM (inactive)	2.47 µM (inactive)	5.55 µM (inactive)
